Structures can show the parent of a compound that is named as a salt. Marks after values point to notes of the source that are not given here.
Legend:
IL-5 = assay: Effect on cytokine production of mice sensitized by controlled-release ovalbumin: IL-5; assay type: in vivo, BALB/c mouse; conditions: 30 mg/kg b.w. orally, 5 days a week during 9-day period, splenic cells incubated with OVA 3 days, ELISA; for inhibition in vivo at 30 mg/kg: Mus musculus, po, read-out: Suppression Rate (%) IL-5
Description: (§1) Effect on Cytokine Production of Mice Sensitized by Controlled-Release Ovalbumin
(§2) An osmotic pump (Alza Co., USA) containing a solution (100 μL) containing 1.0 mg of ovalbumin (OVA; albumin chicken egg grade III, Sigma Chemical) was implanted in the back of a male BALB/c mouse (Charles River) of 8 weeks old under ether anesthesia, and the mouse is sensitized by the controlled-release ovalbumin. After 11 days from implantation of the pump, a sample of spleen was removed, and a splenic cell suspension was prepared by the use of the RPMI-1640 medium (Bio Whittaker Inc., USA) containing inactivated fetal bovine serum (10% V/V; Bio Whittaker Inc., USA), 2-mercaptoethanol (50 μM), and gentamicin (20 μg/ml). A sample compound (30 mg/kg b.w.) was suspended in 0.4 ml of methylcellulose (MC), and the suspension was orally administered, 5 days a week during the 9-day period from the initiation day of sensitization to the day before the day of blood sample collection (1 Group, n=10). The splenic cell suspension was adjusted to a concentration of 5.0×10^6 cells/ml, and the resulting suspension (100 μl) was pipetted onto a 96 well U-bottomed plate, each of the wells containing a solution (100 μl/well) of 400 μg/ml OVA, and the plate was incubated at 37° C. in a 5% carbon dioxide gas incubator for 3 days. The cultured media were centrifuged at 200×g for 5 minutes, and the supernatants were collected and the production of IL-4, IL-5 and IFN-γ in each of the supernatants was determined by the ELISA method [Mouse IL-4 Bulk Kit (PerSeptive Biosystems), Mouse IL-5 Bulk Kit (PerSeptive Biosystems), and Mouse IFN-γ Bulk Kit (PerSeptive Biosystems)].

IFN-γ = assay: Effect on cytokine production of mice sensitized by controlled-release ovalbumin: IFN-γ; assay type: in vivo, BALB/c mouse; conditions: 30 mg/kg b.w. orally, 5 days a week during 9-day period, splenic cells incubated with OVA 3 days, ELISA; for inhibition in vivo at 30 mg/kg: Mus musculus, po, read-out: Suppression Rate (%) IFN-γ
Description: as §1, §2

IL-4 = assay: Effect on cytokine production of mice sensitized by controlled-release ovalbumin: IL-4; assay type: in vivo, BALB/c mouse; conditions: 30 mg/kg b.w. orally, 5 days a week during 9-day period, splenic cells incubated with OVA 3 days, ELISA; for inhibition in vivo at 30 mg/kg: Mus musculus, po, read-out: Suppression Rate (%) IL-4
Description: as §1, §2

OVA-specific IgE = assay: Effect on antibody production of ovalbumin-sensitized mice: IgE; assay type: in vivo, BALB/c mouse; conditions: 30 mg/kg b.w. orally, 5 days a week during 9-day period, serum 11 days after first sensitization, ELISA; for inhibition in vivo at 30 mg/kg: Mus musculus, po, 264 h, read-out: Suppression Rate (%) IgE
Description: (§3) Effect on Antibody Production of Mice Sensitized by Controlled-Release Ovalbumin
(§4) A male BALB/c mouse (Charles River) of 7 weeks old was sensitized by intraabdominal administration, twice at an interval of a week, of a mixture of 10 μg/mouse of ovalbumin (OVA; albumin chicken egg grade III; Sigma Chemical) and 1 mg of aluminum hydroxide hydrate gel suspension (Alum; LSL Co. LTD.). After 11 days from the first sensitization, blood was collected from beneath eye under ether anesthesia, and the amount of OVA-specific IgE, IgG1 (Th2 type) and IgG2a (Th1 type) antibodies in the serum were determined by the ELISA method. A sample compound (30 mg/kg b.w.) was suspended in 0.4 ml of methylcellulose (MC), and the suspension was orally administered, 5 days a week during the 9-day period from the initiation day of sensitization to the day before the day of blood sample collection (1 Group, n=8 to 10).

[1] = test system: OVA-specific IgG2a (Th1 type); assay: Effect on antibody production of ovalbumin-sensitized mice: IgG2a; assay type: in vivo, BALB/c mouse; conditions: 30 mg/kg b.w. orally, 5 days a week during 9-day period, serum 11 days after first sensitization, ELISA; for inhibition in vivo at 30 mg/kg: Mus musculus, po, 264 h, read-out: Suppression Rate (%) IgG2a
Description: as §3, §4

Structure (SMILES)	inhibition in vivo at 30 mg/kg (IL-5) [%]	inhibition in vivo at 30 mg/kg (IFN-γ) [%]	inhibition in vivo at 30 mg/kg (IL-4) [%]	inhibition in vivo at 30 mg/kg (OVA-specific IgE) [%]	inhibition in vivo at 30 mg/kg [1] [%]	also measured
Cc1nn(-c2cccnc2)c2[nH]c3ccccc3c(=O)c12 [Example 1-64, 3-Methyl-1-(3-pyridinyl)-1,9-dihydro-4H-pyrazolo[3,4-b]quinolin-4-one]	39.9	-6.8	49.1			
Cc1nn(Cc2ccccn2)c2[nH]c3ccccc3c(=O)c12 [Example 1-69, 3-Methyl-1-(2-pyridinylmethyl)-1,9-dihydro-4H-pyrazolo[3,4-b]quinolin-4-one]	50	8.3	19.4			
Cc1cccc2c(=O)c3c(C)nn(-c4ccccn4)c3[nH]c12 [Example 1-47, 3,8-Dimethyl-1-(2-pyridinyl)-1,9-dihydro-4H-pyrazolo[3,4-b]quinolin-4-one]	61.1	31.8	49.9	4.9	-17.1	
Cc1cccnc1-n1nc(C)c2c(N)c3cccc(C)c3nc21 [Example 1-62, 3,8-Dimethyl-1-(3-methyl-2-pyridinyl)-1H-pyrazolo[3,4-b]quinolin-4-ylamine]	4.8	-13.8	19.4			
Cc1nn(-c2ncccn2)c2nc3ccccc3c(N)c12 [Example 1-65, 3-Methyl-1-(2-pyrimidinyl)-1H-pyrazolo[3,4-b]quinolin-4-ylamine hydrochloride]	16.5	-15.7	8.1			
COc1cccc(-n2nc(C)c3c(N)c4cccc(C)c4nc32)n1 [Example 1-59, 3,8-Dimethyl-1-(6-methoxy-2-pyridinyl)-1H-pyrazolo[3,4-b]quinolin-4-ylamine]	27.8	-124	66.5	60.7	46.3	
Cc1cccnc1-n1nc(C)c2c(Cl)c3ccccc3nc21 [Example 1-56, 4-Chloro-3-methyl-1-(3-methyl-2-pyridinyl)-1H-pyrazolo[3,4-b]quinoline]	12.2	12.2	23.7			
COc1cccc2c(N)c3c(C)nn(-c4ccccn4)c3nc12 [Example 1-48, 8-Methoxy-3-methyl-1-(2-pyridinyl)-1H-pyrazolo[3,4-b]quinolin-4-ylamine hydrochloride]	16.2	-7.6	31.6			
Cc1cccc2nc3c(c(C)nn3-c3ccccn3)c(N)c12 [Example 1-44, 3,5-Dimethyl-1-(2-pyridinyl)-1H-pyrazolo[3,4-b]quinolin-4-ylamine]	3.1	36.3	68.2			melting point: 252 to 255 °C
CCOc1cccc(-n2nc(C)c3c(Cl)c4c(C)cccc4nc32)n1 [Example 1-57, 4-Chloro-3,5-dimethyl-1-(6-ethoxy-2-pyridinyl)-1H-pyrazolo[3,4-b]quinoline]	53.9	36.7	43.2	23.6	-55.1	
Cc1nn(-c2ccccn2)c2nc3ccccc3c(N)c12.Cl [Example 1-36, 3-Methyl-1-(2-pyridinyl)-1H-pyrazolo[3,4-b]quinolin-4-ylamine hydrochloride]	61.5	-131	99.8	64.2	23.4	melting point: 268 to 271 °C
CCOc1cccc(-n2nc(C)c3c(=O)c4cccc(C)c4[nH]c32)n1 [Example 1-61, 3,8-Dimethyl-1-(6-ethoxy-2-pyridinyl)-1,9-dihydro-4H-pyrazolo[3,4-b]quinolin-4-one]	26.1	-8.7	16			
CSc1ccc2[nH]c3c(c(C)nn3-c3ccccn3)c(=O)c2c1 [Example 1-50, 3-Methyl-6-(methylsulfanyl)-1-(2-pyridinyl)-1,9-dihydro-4H-pyrazolo[3,4-b]quinolin-4-one]	60.2	11.1	45.5	22	19.5	melting point: 182 to 185 °C
CCOc1cccc(-n2nc(C)c3c(N)c4cccc(C)c4nc32)n1 [Example 1-60]						Suppression Rate (%) IL-5 (IL-5): 59.3%; Suppression Rate (%) IFN-γ (IFN-γ): 23.4%; Suppression Rate (%) IgE (OVA-specific IgE): 54.9** %; Suppression Rate (%) IL-4 (IL-4): 56.7%; Suppression Rate (%) IgG2a [1]: 47.8%
Cc1cccc2c(N)c3c(C)nn(-c4ccc5ccccc5n4)c3nc12 [Example 1-66, 3,8-Dimethyl-1-(2-quinolinyl)-1H-pyrazolo[3,4-b]quinolin-4-ylamine]	34.3	50	27.1			
COc1cc2[nH]c3c(c(C)nn3-c3ccccn3)c(=O)c2cc1OC [Example 1-49, 6,7-Dimethoxy-3-methyl-1-(2-pyridinyl)-1,9-dihydro-4H-pyrazolo[3,4-b]quinolin-4-one]	11.8	-9	13.9			
Cc1cccc2c(N)c3c(C)nn(-c4ccccn4)c3nc12 [Example 1-46, 3,8-Dimethyl-1-(2-pyridinyl)-1H-pyrazolo[3,4-b]quinolin-4-ylamine hydrochloride]	5.2	-132	80.4			
Cc1nn(-c2ccccn2)c2[nH]c3ccc(Cl)cc3c(=O)c12 [Example 1-51, 6-Chloro-3-methyl-1-(2-pyridinyl)-1,9-dihydro-4H-pyrazolo[3,4-b]quinolin-4-one]	53.7	-11.2	31.9			
CNc1c2ccccc2nc2c1c(C)nn2-c1ccccn1.Cl [Example 1-37, N-Methyl-N-[3-methyl-1-(2-pyridinyl)-1H-pyrazolo[3,4-b]quinolin-4-yl]amine hydrochloride]				29.6	9.6	melting point: 229 to 232 °C

— patent US6949648B2, “Condensed pyrazole derivatives, process for producing the same and use thereof” (Takeda Pharmaceutical Company Limited, priority 2000, dated 2005)
